Test results as given in publication PMC8550792, “Evolution of kinase polypharmacology across HSP90 drug discovery” (Cell Chemical Biology, 2021).

What was measured:
Assay in all cases: biochemical
Format in all cases: biochemical
382 unique human kinases [1] = molecular target: T1, 382 unique human kinases (Homo sapiens, UniProt P30291); conditions: kinase WEE1, compound 10 uM; for remaining activity at 10 µM: read-out: % Enzyme Activity (relative to DMSO controls)
T1 construct: purchased Reaction Biology (HotSpot contract assay)

382 unique human kinases [2] = molecular target: T2, 382 unique human kinases (Homo sapiens, UniProt Q9Y5S2); conditions: MRCKb/CDC42BPB, 10 uM; for remaining activity at 10 µM: read-out: % Enzyme Activity (relative to DMSO controls)
T2 construct: purchased Reaction Biology (HotSpot contract assay)

382 unique human kinases [3] = molecular target: T3, 382 unique human kinases (Homo sapiens, UniProt Q14680, T460M); conditions: MELK (T460M), [ATP] 20 µM, compound 10 uM; for remaining activity at 10 µM: read-out: % Enzyme Activity (relative to DMSO controls)
T3 construct: purchased Reaction Biology (HotSpot contract assay)

382 unique human kinases [4] = molecular target: T4, 382 unique human kinases (Homo sapiens, UniProt Q9UBE8); conditions: NLK, 10 uM; for remaining activity at 10 µM: read-out: % Enzyme Activity (relative to DMSO controls)
T4 construct: purchased Reaction Biology (HotSpot contract assay)
T4 sequence (Q9UBE8 1-527): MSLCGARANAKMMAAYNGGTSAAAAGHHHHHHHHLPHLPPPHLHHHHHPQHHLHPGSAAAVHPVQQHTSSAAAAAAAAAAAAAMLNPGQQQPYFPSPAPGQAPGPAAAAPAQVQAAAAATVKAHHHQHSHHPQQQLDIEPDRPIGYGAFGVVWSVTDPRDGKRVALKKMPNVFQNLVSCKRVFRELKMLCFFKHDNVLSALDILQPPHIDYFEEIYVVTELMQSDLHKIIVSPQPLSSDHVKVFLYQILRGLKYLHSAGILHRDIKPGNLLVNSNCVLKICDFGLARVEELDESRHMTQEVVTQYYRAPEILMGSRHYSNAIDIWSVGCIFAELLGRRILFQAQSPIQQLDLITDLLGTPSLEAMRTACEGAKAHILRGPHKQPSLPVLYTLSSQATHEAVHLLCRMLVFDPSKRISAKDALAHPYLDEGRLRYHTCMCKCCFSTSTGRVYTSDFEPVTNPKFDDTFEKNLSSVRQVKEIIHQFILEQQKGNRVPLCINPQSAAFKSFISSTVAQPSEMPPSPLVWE

382 unique human kinases [5] = molecular target: T5, 382 unique human kinases (Homo sapiens, UniProt Q9BZL6, G870E); conditions: PKD2 (G870E), [ATP] 30 µM, compound 10 uM; for remaining activity at 10 µM: read-out: % Enzyme Activity (relative to DMSO controls)
T5 construct: purchased Reaction Biology (HotSpot contract assay)
T5 sequence (Q9BZL6 1-878 G870E): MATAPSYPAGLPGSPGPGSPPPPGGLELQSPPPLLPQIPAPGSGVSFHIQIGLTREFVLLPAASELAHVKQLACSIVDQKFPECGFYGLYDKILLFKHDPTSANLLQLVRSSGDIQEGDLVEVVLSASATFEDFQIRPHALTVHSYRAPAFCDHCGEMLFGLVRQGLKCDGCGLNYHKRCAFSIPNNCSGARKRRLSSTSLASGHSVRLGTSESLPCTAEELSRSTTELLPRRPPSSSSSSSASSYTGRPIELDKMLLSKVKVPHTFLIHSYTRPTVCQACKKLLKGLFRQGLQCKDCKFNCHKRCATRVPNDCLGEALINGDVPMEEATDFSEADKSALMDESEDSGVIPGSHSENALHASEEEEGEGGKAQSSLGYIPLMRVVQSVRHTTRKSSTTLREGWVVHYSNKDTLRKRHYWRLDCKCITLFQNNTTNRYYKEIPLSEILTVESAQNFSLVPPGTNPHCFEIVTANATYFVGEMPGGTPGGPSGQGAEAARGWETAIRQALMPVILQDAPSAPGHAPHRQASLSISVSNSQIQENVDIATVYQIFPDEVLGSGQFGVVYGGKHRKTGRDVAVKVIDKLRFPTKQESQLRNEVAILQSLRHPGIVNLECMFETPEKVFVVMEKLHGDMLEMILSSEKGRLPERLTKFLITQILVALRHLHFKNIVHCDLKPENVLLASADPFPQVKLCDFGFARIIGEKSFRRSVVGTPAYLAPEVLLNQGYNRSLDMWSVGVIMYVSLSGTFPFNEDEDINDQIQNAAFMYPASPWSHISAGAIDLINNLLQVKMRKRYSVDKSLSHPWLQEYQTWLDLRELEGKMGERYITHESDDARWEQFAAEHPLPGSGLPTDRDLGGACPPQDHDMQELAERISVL

382 unique human kinases [6] = molecular target: T6, 382 unique human kinases (Homo sapiens, UniProt P00533, DEL747-749); conditions: EGFR (d747-749), 10 uM; for remaining activity at 10 µM: read-out: % Enzyme Activity (relative to DMSO controls)
T6 construct: purchased Reaction Biology (HotSpot contract assay)

382 unique human kinases [7] = molecular target: T7, 382 unique human kinases (Homo sapiens, UniProt P07333); conditions: FMS, [ATP] 100 µM, compound 10 uM; for remaining activity at 10 µM: read-out: % Enzyme Activity (relative to DMSO controls)
T7 construct: purchased Reaction Biology (HotSpot contract assay)

382 unique human kinases [8] = molecular target: T8, 382 unique human kinases (Homo sapiens, UniProt P51813); conditions: BMX/ETK, [ATP] 50 µM, compound 10 uM; for remaining activity at 10 µM: read-out: % Enzyme Activity (relative to DMSO controls)
T8 construct: purchased Reaction Biology (HotSpot contract assay)
T8 sequence (P51813 1-675): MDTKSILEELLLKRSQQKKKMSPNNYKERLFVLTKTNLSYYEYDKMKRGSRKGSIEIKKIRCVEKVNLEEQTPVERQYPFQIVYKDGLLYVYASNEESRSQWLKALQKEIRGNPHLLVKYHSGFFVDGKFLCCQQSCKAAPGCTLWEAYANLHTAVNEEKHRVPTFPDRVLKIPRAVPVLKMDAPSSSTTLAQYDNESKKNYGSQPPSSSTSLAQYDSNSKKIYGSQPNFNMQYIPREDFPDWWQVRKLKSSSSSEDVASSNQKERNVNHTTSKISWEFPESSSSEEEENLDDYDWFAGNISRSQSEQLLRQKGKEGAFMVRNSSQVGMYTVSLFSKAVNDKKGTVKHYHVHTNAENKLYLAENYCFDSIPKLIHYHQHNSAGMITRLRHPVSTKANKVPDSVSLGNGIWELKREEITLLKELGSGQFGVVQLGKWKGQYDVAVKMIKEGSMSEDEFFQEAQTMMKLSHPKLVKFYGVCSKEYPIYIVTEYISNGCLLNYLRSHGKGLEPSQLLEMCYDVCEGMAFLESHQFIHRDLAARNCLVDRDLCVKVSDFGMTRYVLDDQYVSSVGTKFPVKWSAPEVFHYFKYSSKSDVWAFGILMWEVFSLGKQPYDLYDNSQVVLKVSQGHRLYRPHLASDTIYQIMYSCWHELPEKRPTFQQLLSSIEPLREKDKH

T7 sequence (P07333 20-972): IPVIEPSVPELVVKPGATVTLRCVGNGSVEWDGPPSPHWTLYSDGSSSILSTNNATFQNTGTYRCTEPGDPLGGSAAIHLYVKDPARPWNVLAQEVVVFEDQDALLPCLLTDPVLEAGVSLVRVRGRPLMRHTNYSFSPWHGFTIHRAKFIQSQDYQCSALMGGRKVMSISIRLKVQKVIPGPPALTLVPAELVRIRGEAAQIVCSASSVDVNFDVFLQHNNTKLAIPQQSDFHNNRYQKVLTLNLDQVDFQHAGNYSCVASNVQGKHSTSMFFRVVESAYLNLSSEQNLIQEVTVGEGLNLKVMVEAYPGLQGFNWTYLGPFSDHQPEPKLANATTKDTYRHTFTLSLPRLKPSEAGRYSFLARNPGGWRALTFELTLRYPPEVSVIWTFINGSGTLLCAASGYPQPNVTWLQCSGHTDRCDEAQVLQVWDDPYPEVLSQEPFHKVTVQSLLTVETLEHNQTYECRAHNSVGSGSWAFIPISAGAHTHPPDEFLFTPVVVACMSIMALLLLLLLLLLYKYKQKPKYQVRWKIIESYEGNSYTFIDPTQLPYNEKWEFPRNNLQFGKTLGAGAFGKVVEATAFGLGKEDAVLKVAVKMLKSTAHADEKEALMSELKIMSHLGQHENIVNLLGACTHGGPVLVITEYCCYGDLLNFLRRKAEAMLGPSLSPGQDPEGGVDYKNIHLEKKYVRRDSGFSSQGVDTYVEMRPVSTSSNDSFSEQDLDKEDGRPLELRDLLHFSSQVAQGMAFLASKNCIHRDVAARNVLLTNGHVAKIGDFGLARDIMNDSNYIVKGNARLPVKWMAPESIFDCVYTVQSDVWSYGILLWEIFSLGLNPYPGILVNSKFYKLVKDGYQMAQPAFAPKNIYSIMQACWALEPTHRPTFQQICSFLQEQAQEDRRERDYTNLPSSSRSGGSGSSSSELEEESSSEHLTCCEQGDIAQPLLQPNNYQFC
T2 sequence (Q9Y5S2 whole entry): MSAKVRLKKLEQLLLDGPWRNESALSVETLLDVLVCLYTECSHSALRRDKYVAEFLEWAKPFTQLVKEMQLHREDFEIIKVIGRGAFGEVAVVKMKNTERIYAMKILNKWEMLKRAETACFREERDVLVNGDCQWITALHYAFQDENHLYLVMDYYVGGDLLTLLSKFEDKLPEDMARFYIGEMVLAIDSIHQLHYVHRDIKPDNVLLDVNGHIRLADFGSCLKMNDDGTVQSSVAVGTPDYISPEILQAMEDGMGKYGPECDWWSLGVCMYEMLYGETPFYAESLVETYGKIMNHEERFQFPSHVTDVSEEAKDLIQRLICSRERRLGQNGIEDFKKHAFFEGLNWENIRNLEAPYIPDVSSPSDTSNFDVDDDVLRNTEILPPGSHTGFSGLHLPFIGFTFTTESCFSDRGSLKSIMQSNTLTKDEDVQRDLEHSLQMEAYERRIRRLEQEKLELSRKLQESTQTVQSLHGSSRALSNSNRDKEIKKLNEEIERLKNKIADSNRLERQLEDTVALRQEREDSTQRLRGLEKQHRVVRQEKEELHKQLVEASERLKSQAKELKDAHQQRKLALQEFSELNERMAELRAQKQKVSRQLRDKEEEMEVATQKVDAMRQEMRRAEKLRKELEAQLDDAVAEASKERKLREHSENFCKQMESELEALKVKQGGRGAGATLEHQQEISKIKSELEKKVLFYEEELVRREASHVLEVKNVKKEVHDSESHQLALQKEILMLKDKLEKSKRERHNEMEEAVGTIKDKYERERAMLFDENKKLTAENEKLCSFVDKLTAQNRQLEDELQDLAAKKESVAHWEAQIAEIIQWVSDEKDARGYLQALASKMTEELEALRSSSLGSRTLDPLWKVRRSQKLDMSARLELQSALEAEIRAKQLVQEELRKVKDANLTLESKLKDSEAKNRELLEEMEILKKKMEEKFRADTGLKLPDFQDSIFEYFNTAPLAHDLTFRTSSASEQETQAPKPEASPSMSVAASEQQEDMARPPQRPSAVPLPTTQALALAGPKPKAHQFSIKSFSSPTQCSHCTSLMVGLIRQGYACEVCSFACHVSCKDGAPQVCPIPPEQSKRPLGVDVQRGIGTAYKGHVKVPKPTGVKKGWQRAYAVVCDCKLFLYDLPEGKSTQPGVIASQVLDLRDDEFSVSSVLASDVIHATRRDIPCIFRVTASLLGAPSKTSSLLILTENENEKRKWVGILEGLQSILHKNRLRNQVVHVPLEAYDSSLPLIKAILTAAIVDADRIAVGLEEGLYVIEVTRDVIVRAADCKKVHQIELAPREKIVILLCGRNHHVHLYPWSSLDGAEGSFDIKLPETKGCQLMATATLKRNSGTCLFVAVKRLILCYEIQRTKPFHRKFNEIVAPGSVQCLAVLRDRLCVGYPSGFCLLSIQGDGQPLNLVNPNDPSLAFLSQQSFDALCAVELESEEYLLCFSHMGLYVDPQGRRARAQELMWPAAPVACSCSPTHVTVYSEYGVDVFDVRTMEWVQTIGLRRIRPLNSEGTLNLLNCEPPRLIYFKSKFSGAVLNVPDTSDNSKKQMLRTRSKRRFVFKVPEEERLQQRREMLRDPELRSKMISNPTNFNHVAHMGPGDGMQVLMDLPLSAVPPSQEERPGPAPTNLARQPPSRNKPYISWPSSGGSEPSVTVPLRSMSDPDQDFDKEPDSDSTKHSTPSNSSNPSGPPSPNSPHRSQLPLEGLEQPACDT
T1 sequence (P30291 whole entry): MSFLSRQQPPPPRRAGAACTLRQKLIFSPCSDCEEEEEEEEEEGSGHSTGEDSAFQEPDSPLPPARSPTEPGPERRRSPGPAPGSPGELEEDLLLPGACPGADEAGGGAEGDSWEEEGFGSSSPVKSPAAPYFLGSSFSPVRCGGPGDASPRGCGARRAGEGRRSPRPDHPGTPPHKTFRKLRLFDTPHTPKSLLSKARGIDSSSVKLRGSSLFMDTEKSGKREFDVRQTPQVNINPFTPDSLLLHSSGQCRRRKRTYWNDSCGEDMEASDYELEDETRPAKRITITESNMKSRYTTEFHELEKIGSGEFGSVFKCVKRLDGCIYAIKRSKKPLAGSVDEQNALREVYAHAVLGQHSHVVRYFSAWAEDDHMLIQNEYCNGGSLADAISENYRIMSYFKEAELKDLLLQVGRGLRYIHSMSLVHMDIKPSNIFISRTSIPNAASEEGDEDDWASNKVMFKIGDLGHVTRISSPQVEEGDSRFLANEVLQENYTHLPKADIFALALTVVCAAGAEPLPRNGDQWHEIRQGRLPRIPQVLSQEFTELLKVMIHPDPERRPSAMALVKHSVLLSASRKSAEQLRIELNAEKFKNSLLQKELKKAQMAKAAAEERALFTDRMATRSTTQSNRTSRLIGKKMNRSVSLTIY
T3 sequence (Q14680 whole entry T460M): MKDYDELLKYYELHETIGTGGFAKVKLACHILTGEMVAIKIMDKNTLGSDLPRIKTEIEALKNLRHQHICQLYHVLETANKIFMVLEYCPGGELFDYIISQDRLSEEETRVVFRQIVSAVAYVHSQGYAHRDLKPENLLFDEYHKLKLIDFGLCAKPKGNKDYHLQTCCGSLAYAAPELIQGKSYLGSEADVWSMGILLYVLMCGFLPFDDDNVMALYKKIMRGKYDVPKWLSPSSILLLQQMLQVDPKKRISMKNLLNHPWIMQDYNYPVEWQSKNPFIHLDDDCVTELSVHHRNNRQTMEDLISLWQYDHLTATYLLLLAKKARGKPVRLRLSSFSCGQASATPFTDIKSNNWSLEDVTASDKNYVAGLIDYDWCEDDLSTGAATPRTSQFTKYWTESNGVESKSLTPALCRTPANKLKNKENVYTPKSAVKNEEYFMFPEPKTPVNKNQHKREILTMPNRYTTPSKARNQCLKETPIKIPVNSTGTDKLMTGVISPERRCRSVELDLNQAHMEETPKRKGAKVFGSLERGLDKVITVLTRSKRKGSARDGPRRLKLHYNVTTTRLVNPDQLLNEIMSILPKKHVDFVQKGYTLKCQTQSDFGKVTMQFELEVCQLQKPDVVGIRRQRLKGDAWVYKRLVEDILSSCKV

`CC(C)c1cc(-c2n[nH]c(=O)n2-c2ccc3c(ccn3C)c2)c(O)cc1O` [Ganetespib (STA9090)] showed a remaining activity at 10 µM (382 unique human kinases [1]) of 87.2% and a remaining activity at 10 µM (382 unique human kinases [2]) of 78.9%.

With `CCNC(=O)c1noc(-c2cc(C(C)C)c(O)cc2O)c1-c1ccc(CN2CCOCC2)cc1` [Luminespib] the “% Enzyme Activity (relative to DMSO controls)” value (382 unique human kinases [3]) was 72.49%, the remaining activity at 10 µM (382 unique human kinases [3]) was 74.9% and the “% Enzyme Activity (relative to DMSO controls)” value (382 unique human kinases [4]) was 91.72%. For the same compound, the remaining activity at 10 µM (382 unique human kinases [4]) was 92.5%, the “% Enzyme Activity (relative to DMSO controls)” value (382 unique human kinases [5]) was 103.84% and the remaining activity at 10 µM (382 unique human kinases [5]) was 104%. The “% Enzyme Activity (relative to DMSO controls)” value (382 unique human kinases [6]) was 98.26%, the remaining activity at 10 µM (382 unique human kinases [6]) was 99.3% and the “% Enzyme Activity (relative to DMSO controls)” value (382 unique human kinases [7]) was 26.15%. For the same compound, the remaining activity at 10 µM (382 unique human kinases [7]) was 26.4%, the “% Enzyme Activity (relative to DMSO controls)” value (382 unique human kinases [8]) was 102.71% and the remaining activity at 10 µM (382 unique human kinases [8]) was 103%.

In the case of `CCNC(=O)c1noc(-c2cc(C(C)C)c(O)cc2O)c1-c1ccc(CN2CCOCC2)cc1` [Luminespib (AUY-922)], the “% Enzyme Activity (relative to DMSO controls)” value (382 unique human kinases [1]) is reported as 114.11%, the remaining activity at 10 µM (382 unique human kinases [1]) is reported as 116% and the “% Enzyme Activity (relative to DMSO controls)” value (382 unique human kinases [2]) is reported as 103.51%. It also gave a remaining activity at 10 µM (382 unique human kinases [2]) of 111%.

For `CC(C)c1cc(-c2n[nH]c(=O)n2-c2ccc3c(ccn3C)c2)c(O)cc1O` [Ganetespib], the remaining activity at 10 µM (382 unique human kinases [3]) was 43.6%, the remaining activity at 10 µM (382 unique human kinases [4]) was 94.8% and the remaining activity at 10 µM (382 unique human kinases [5]) was 59.7%. For the same compound, the remaining activity at 10 µM (382 unique human kinases [6]) was 96.5%, the remaining activity at 10 µM (382 unique human kinases [7]) was 23.5% and the remaining activity at 10 µM (382 unique human kinases [8]) was 46.7%.
